Like-named read-outs stand apart in the source and are kept apart here.
Legend:
[1] = tested on: Bromus inermis (BROIN); assay: greenhouse pre-emergence herbicidal activity; format: in vivo; settings: read-out: observed % activity; for inhibition at 47 g/ha: metazachlor 47 g ai/ha; for inhibition at 12.5 g/ha: pyroxasulfone 12.5 g ai/ha; for inhibition at 25 g/ha: pyroxasulfone 25 g ai/ha
Description: (§1) For the pre-emergence treatment, directly after sowing the active compounds, which had been suspended or emulsified in water, were applied by means of finely distributed nozzles. The containers were irrigated gently to promote germination and growth and subsequently covered with transparent plastic hoods until plant had rooted. This cover caused uniform germination of the tests plants, unless this was adversely affected by active compounds.
(§2) The respective herbicides A and/or safener were formulated as 10% by weight strength emulsion concentrate and introduced to the spray liquor with the amount of solvent system used for applying the active compound. In the examples, the solvent used was water. Herbicide B and/or safener were used as commercially available formulations and introduced to the spray liquor with the amount of solvent system used for applying the active compound. In the examples, the solvent used was water.
(§3) Metazachlor was used as a commercial aqueous suspension concentrate having an active ingredient concentration of 500 g/l.
(§4) The test period extended over 21 days. During this time, the plants were tended, and their response to the treatments with active compound was evaluated.
(§5) The evaluation for the damage caused by the chemical compositions was carried out using a scale from 0 to 100%, compared to the untreated control plants. Here, 0 means no damage and 100 means complete destruction of the plants.
(§6) The value E, which is to be expected if the activity of the individual compounds is just additive, was calculated using the method of S. R. Colby (1967) “Calculating synergistic and antagonistic responses of herbicide combinations”, Weeds 15, p. 22 ff.
(§7) where X=effect in percent using herbicide A at an application rate a; • Y=effect in percent using herbicide B at an application rate b; • E=expected effect (in %) of A+B at application rates a+b.
(§8) If the value observed in this manner is higher than the value E calculated according to Colby, a synergistic effect is present.

[2] = tested on: Capsella bursa-pastoris (CAPBP); assay: greenhouse pre-emergence herbicidal activity; format: in vivo; settings: read-out: observed % activity; for inhibition at 47 g/ha: metazachlor 47 g ai/ha; for inhibition at 94 g/ha: metazachlor 94 g ai/ha; for inhibition at 6.25 g/ha: pyroxasulfone 6.25 g ai/ha; for inhibition at 25 g/ha: pyroxasulfone 25 g ai/ha; for inhibition at 50 g/ha: pyroxasulfone 50 g ai/ha
Description: as §1, §2, §3, §4, §5, §6, §7, §8

[3] = tested on: Galium aparine (GALAP); assay: greenhouse pre-emergence herbicidal activity; format: in vivo; settings: read-out: observed % activity; for inhibition at 47 g/ha: metazachlor 47 g ai/ha; for inhibition at 50 g/ha: pyroxasulfone 50 g ai/ha
Description: as §1, §2, §3, §4, §5, §6, §7, §8

[4] = tested on: Matricaria inermis (MATIN); assay: greenhouse pre-emergence herbicidal activity; format: in vivo; settings: read-out: observed % activity; for inhibition at 47 g/ha: metazachlor 47 g ai/ha; for inhibition at 6.25 g/ha: pyroxasulfone 6.25 g ai/ha; for inhibition at 25 g/ha: pyroxasulfone 25 g ai/ha
Description: as §1, §2, §3, §4, §5, §6, §7, §8

[5] = tested on: Thlaspi arvense (THLAR); assay: greenhouse pre-emergence herbicidal activity; format: in vivo; settings: read-out: observed % activity; for inhibition at 47 g/ha: metazachlor 47 g ai/ha; for inhibition at 94 g/ha: metazachlor 94 g ai/ha; for inhibition at 187 g/ha: metazachlor 187 g ai/ha; for inhibition at 6.25 g/ha: pyroxasulfone 6.25 g ai/ha; for inhibition at 12.5 g/ha: pyroxasulfone 12.5 g ai/ha; for inhibition at 25 g/ha: pyroxasulfone 25 g ai/ha; for inhibition at 50 g/ha: pyroxasulfone 50 g ai/ha
Description: as §1, §2, §3, §4, §5, §6, §7, §8

[6] = tested on: Capsella bursa-pastoris (CAPBP); assay: greenhouse post-emergence herbicidal activity; format: in vivo; settings: 20 DAT
Description: (§9) For the post-emergence treatment, the test plants were first grown to a height of 3 to 20 cm, depending on the plant habit, and only then treated. Here, the herbicidal compositions were suspended or emulsified in water as distribution medium and sprayed using finely distributing nozzles.
as §2, §3, §4, §5, §6, §7, §8

[7] = tested on: Matricaria inermis (MATIN); assay: greenhouse post-emergence herbicidal activity; format: in vivo; settings: 20 DAT
Description: as §9, §2, §3, §4, §5, §6, §7, §8

[8] = tested on: Veronica persica (VERPE); assay: greenhouse post-emergence herbicidal activity; format: in vivo; settings: 20 DAT
Description: as §9, §2, §3, §4, §5, §6, §7, §8

[9] = tested on: Viola arvensis (VIOAR); assay: greenhouse post-emergence herbicidal activity; format: in vivo; settings: for inhibition at 94 g/ha / inhibition at 25 g/ha / inhibition at 100 g/ha: Viola arvensis, read-out: observed % activity; for observed activity in % destruction 20 days after treatment: 20 DAT (Table 3)
Description: as §9, §2, §3, §4, §5, §6, §7, §8

[10] = known from Y. Yamaji et al., 2006; cited from earlier work

Cc1cccc(C)c1N(Cn1cccn1)C(=O)CCl [metazachlor]
inhibition at 47 g/ha ([1]; 192 h, 8 DAT): 35%
inhibition at 47 g/ha ([1]; 480 h, 20 DAT): 30%
inhibition at 47 g/ha ([2]; 192 h, 8 DAT): 40%
inhibition at 94 g/ha ([2]; 192 h, 8 DAT): 40%
inhibition at 47 g/ha ([2]; 480 h, 20 DAT): 70%
inhibition at 94 g/ha ([2]; 480 h, 20 DAT): 80%
inhibition at 47 g/ha ([3]; 192 h, 8 DAT): 30%
inhibition at 47 g/ha ([3]; 480 h, 20 DAT): 35%
inhibition at 47 g/ha ([4]; 192 h, 8 DAT): 20%
inhibition at 47 g/ha ([4]; 480 h, 20 DAT): 35%
inhibition at 47 g/ha ([5]; 192 h, 8 DAT): 20%
inhibition at 94 g/ha ([5]; 192 h, 8 DAT): 30%
inhibition at 187 g/ha ([5]; 192 h, 8 DAT): 45%
inhibition at 47 g/ha ([5]; 480 h, 20 DAT): 0%
inhibition at 94 g/ha ([5]; 480 h, 20 DAT): 0%
inhibition at 187 g/ha ([5]; 480 h, 20 DAT): 30%
observed activity in % destruction 20 days after treatment ([6]; metazachlor 94 g ai/ha): 45%
observed activity in % destruction 20 days after treatment ([7]; metazachlor 187 g ai/ha): 60%
observed activity in % destruction 20 days after treatment ([7]; metazachlor 750 g ai/ha): 80%
observed activity in % destruction 20 days after treatment ([8]; metazachlor 94 g ai/ha): 60%
observed activity in % destruction 20 days after treatment ([8]; metazachlor 187 g ai/ha): 80%
inhibition at 94 g/ha ([9]; 168 h, metazachlor 94 g ai/ha, 7 DAT): 30%
inhibition at 94 g/ha ([9]; 480 h, metazachlor 94 g ai/ha, 20 DAT): 0%
observed activity in % destruction 20 days after treatment ([9]; metazachlor 94 g ai/ha): 0%

Cn1nc(C(F)(F)F)c(CS(=O)(=O)C2=NOC(C)(C)C2)c1OC(F)F [pyroxasulfone, 3-[5-(difluoromethoxy)-1-methyl-3-(trifluoromethyl)pyrazol-4-ylmethylsulfonyl]-4,5-dihydro-5,5-dimethyl-1,2-oxazole]
inhibition at 12.5 g/ha ([1]; 192 h, 8 DAT): 50%
inhibition at 25 g/ha ([1]; 192 h, 8 DAT): 50%
inhibition at 12.5 g/ha ([1]; 480 h, 20 DAT): 50%
inhibition at 25 g/ha ([1]; 480 h, 20 DAT): 60%
inhibition at 6.25 g/ha ([2]; 192 h, 8 DAT): 40%
inhibition at 25 g/ha ([2]; 192 h, 8 DAT): 60%
inhibition at 50 g/ha ([2]; 192 h, 8 DAT): 60%
inhibition at 6.25 g/ha ([2]; 480 h, 20 DAT): 40%
inhibition at 25 g/ha ([2]; 480 h, 20 DAT): 95%
inhibition at 50 g/ha ([2]; 480 h, 20 DAT): 95%
inhibition at 50 g/ha ([3]; 192 h, 8 DAT): 60%
inhibition at 50 g/ha ([3]; 480 h, 20 DAT): 80%
inhibition at 6.25 g/ha ([4]; 192 h, 8 DAT): 0%
inhibition at 25 g/ha ([4]; 192 h, 8 DAT): 20%
inhibition at 6.25 g/ha ([4]; 480 h, 20 DAT): 20%
inhibition at 25 g/ha ([4]; 480 h, 20 DAT): 50%
inhibition at 6.25 g/ha ([5]; 192 h, 8 DAT): 30%
inhibition at 12.5 g/ha ([5]; 192 h, 8 DAT): 40%
inhibition at 25 g/ha ([5]; 192 h, 8 DAT): 60%
inhibition at 50 g/ha ([5]; 192 h, 8 DAT): 60%
inhibition at 6.25 g/ha ([5]; 480 h, 20 DAT): 20%
inhibition at 12.5 g/ha ([5]; 480 h, 20 DAT): 30%
inhibition at 25 g/ha ([5]; 480 h, 20 DAT): 80%
inhibition at 50 g/ha ([5]; 480 h, 20 DAT): 80%
observed activity in % destruction 20 days after treatment ([6]; pyroxasulfone 25 g ai/ha): 35%
observed activity in % destruction 20 days after treatment ([7]; pyroxasulfone 25 g ai/ha): 0%
observed activity in % destruction 20 days after treatment ([7]; pyroxasulfone 50 g ai/ha): 0%
observed activity in % destruction 20 days after treatment ([7]; pyroxasulfone 100 g ai/ha): 20%
observed activity in % destruction 20 days after treatment ([8]; pyroxasulfone 100 g ai/ha): 90%
inhibition at 25 g/ha ([9]; 168 h, pyroxasulfone 25 g ai/ha, 7 DAT): 0%
inhibition at 100 g/ha ([9]; 168 h, pyroxasulfone 100 g ai/ha, 7 DAT): 50%
inhibition at 25 g/ha ([9]; 480 h, pyroxasulfone 25 g ai/ha, 20 DAT): 0%
inhibition at 100 g/ha ([9]; 480 h, pyroxasulfone 100 g ai/ha, 20 DAT): 65%
observed activity in % destruction 20 days after treatment ([9]; pyroxasulfone 25 g ai/ha): 0%
observed activity in % destruction 20 days after treatment ([9]; pyroxasulfone 100 g ai/ha): 65%
post-emergence activity [10]: poor
